Results as given in PubChem BioAssay (NCI).
Where “and” joins values, the source holds several entries; their conditions need not be identical. Identical values can stand only once.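 Exposure lasted 48 hours, with cells grown in 96-well plates and compounds tested at five concentrations. GI50 is the concentration that inhibits growth by half. TGI: concentration producing complete growth inhibition.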

How the values were obtained:
Assay in all cases: growth of human tumour cells (NCI), 48 h
CCRF-CEM leukemia = tested on: CCRF-CEM leukemia
SF-539 CNS = tested on: SF-539 CNS
RXF 393 renal = tested on: RXF 393 renal
M14 melanoma = tested on: M14 melanoma
MALME-3M melanoma = tested on: MALME-3M melanoma
DU-145 prostate = tested on: DU-145 prostate
IGROV1 ovarian = tested on: IGROV1 ovarian
SF-268 CNS = tested on: SF-268 CNS
OVCAR-5 ovarian = tested on: OVCAR-5 ovarian
HOP-92 NSCLC = tested on: HOP-92 NSCLC
HCT-15 colon = tested on: HCT-15 colon
786-0 renal = tested on: 786-0 renal
ACHN renal = tested on: ACHN renal
NCI-H460 lung = tested on: NCI-H460 lung
A498 renal = tested on: A498 renal
UACC-62 melanoma = tested on: UACC-62 melanoma
NCI-H23 lung = tested on: NCI-H23 lung
UO-31 renal = tested on: UO-31 renal
TK-10 renal = tested on: TK-10 renal
RPMI-8226 leukemia = tested on: RPMI-8226 leukemia
SK-OV-3 ovarian = tested on: SK-OV-3 ovarian
SNB-75 CNS = tested on: SNB-75 CNS
SK-MEL-28 melanoma = tested on: SK-MEL-28 melanoma
PC-3 prostate = tested on: PC-3 prostate
CAKI-1 renal = tested on: CAKI-1 renal
NCI/ADR-RES ovarian = tested on: NCI/ADR-RES ovarian
HT29 colon = tested on: HT29 colon
NCI-H522 lung = tested on: NCI-H522 lung
SR leukemia = tested on: SR leukemia
MDA-MB-435 = tested on: MDA-MB-435
SW-620 colon = tested on: SW-620 colon
U251 CNS = tested on: U251 CNS
NCI-H226 lung = tested on: NCI-H226 lung
LOX IMVI melanoma = tested on: LOX IMVI melanoma
COLO 205 colon = tested on: COLO 205 colon
MOLT-4 leukemia = tested on: MOLT-4 leukemia
SF-295 CNS = tested on: SF-295 CNS
MCF7 breast = tested on: MCF7 breast
SNB-19 CNS = tested on: SNB-19 CNS
SK-MEL-5 melanoma = tested on: SK-MEL-5 melanoma
HCT-116 colon = tested on: HCT-116 colon
K-562 leukemia = tested on: K-562 leukemia
SK-MEL-2 melanoma = tested on: SK-MEL-2 melanoma
HS 578T breast = tested on: HS 578T breast
EKVX NSCLC = tested on: EKVX NSCLC
A549 NSCLC = tested on: A549 NSCLC
UACC-257 melanoma = tested on: UACC-257 melanoma
OVCAR-8 ovarian = tested on: OVCAR-8 ovarian
SN12C renal = tested on: SN12C renal
MDA-MB-231 breast = tested on: MDA-MB-231 breast
OVCAR-4 ovarian = tested on: OVCAR-4 ovarian
T-47D breast = tested on: T-47D breast
HL-60(TB) leukemia = tested on: HL-60(TB) leukemia
HCC-2998 colon = tested on: HCC-2998 colon
BT-549 breast = tested on: BT-549 breast
HOP-62 NSCLC = tested on: HOP-62 NSCLC

NC(N)=Nc1ccc(Oc2cccc(Nc3ccc(Br)c(C(F)(F)F)c3)c2)cc1
GI50 (CCRF-CEM leukemia): 1.97 µM
TGI (CCRF-CEM leukemia): 5.5 µM
GI50 (SF-539 CNS): 1.63 µM
TGI (SF-539 CNS): 3.09 µM
GI50 (RXF 393 renal): 1.75 µM
TGI (RXF 393 renal): 3.27 µM
GI50 (M14 melanoma): 1.69 µM
TGI (M14 melanoma): 3.29 µM
GI50 (MALME-3M melanoma): 1.8 µM
TGI (MALME-3M melanoma): 4.04 µM
GI50 (DU-145 prostate): 1.8 µM
TGI (DU-145 prostate): 3.31 µM
GI50 (IGROV1 ovarian): 1.19 µM
TGI (IGROV1 ovarian): 2.76 µM
GI50 (SF-268 CNS): 1.68 µM
TGI (SF-268 CNS): 3.45 µM
GI50 (OVCAR-5 ovarian): 1.63 µM
TGI (OVCAR-5 ovarian): 3.07 µM
GI50 (HOP-92 NSCLC): 0.829 µM
TGI (HOP-92 NSCLC): 2.16 µM
GI50 (HCT-15 colon): 2.05 µM
TGI (HCT-15 colon): 4.83 µM
GI50 (786-0 renal): 1.6 µM
TGI (786-0 renal): 3.12 µM
GI50 (ACHN renal): 2.69 µM
TGI (ACHN renal): 7.84 µM
GI50 (NCI-H460 lung): 1.87 µM
TGI (NCI-H460 lung): 3.51 µM
GI50 (A498 renal): 1.49 µM
TGI (A498 renal): 2.91 µM
GI50 (UACC-62 melanoma): 1.77 µM
TGI (UACC-62 melanoma): 3.28 µM
GI50 (NCI-H23 lung): 1.67 µM
TGI (NCI-H23 lung): 3.37 µM
GI50 (UO-31 renal): 3.08 µM
TGI (UO-31 renal): 11.5 µM
GI50 (TK-10 renal): 1.88 µM
TGI (TK-10 renal): 4.11 µM
GI50 (RPMI-8226 leukemia): 1.97 µM
TGI (RPMI-8226 leukemia): 4.61 µM
GI50 (SK-OV-3 ovarian): 2.11 µM
TGI (SK-OV-3 ovarian): 5.12 µM
GI50 (SNB-75 CNS): 1.23 µM
TGI (SNB-75 CNS): 2.56 µM
GI50 (SK-MEL-28 melanoma): 1.77 µM
TGI (SK-MEL-28 melanoma): 3.22 µM
GI50 (PC-3 prostate): 1.4 µM
TGI (PC-3 prostate): 2.73 µM
GI50 (CAKI-1 renal): 1.6 µM
TGI (CAKI-1 renal): 3.14 µM
GI50 (NCI/ADR-RES ovarian): 14.6 µM
TGI (NCI/ADR-RES ovarian): 37.5 µM
GI50 (HT29 colon): 1.56 µM
TGI (HT29 colon): 3.12 µM
GI50 (NCI-H522 lung): 1.6 µM
TGI (NCI-H522 lung): 3.35 µM

COc1cc(C)c(-c2ccc(=O)c(OC)cc2C)c(OC)c1OC
GI50 (CCRF-CEM leukemia): > 100 µM and 29.7 µM
TGI (CCRF-CEM leukemia): > 100 µM
GI50 (SF-539 CNS): > 100 µM and 25.8 µM
TGI (SF-539 CNS): > 100 µM
TGI (SR leukemia): > 100 µM
TGI (MDA-MB-435): > 100 µM and 15.3 µM
GI50 (RXF 393 renal): > 100 µM and 21.1 µM
TGI (RXF 393 renal): > 100 µM and 76.5 µM
GI50 (SW-620 colon): > 100 µM and 27.9 µM
TGI (SW-620 colon): > 100 µM
GI50 (U251 CNS): > 100 µM and 30.9 µM
TGI (U251 CNS): > 100 µM
GI50 (NCI-H226 lung): > 100 µM and 86.5 µM
TGI (NCI-H226 lung): > 100 µM
GI50 (M14 melanoma): > 100 µM and 17.3 µM
TGI (M14 melanoma): > 100 µM
TGI (LOX IMVI melanoma): > 100 µM
GI50 (MALME-3M melanoma): > 100 µM and 37.8 µM
TGI (MALME-3M melanoma): > 100 µM
GI50 (IGROV1 ovarian): > 100 µM and 47.3 µM
TGI (IGROV1 ovarian): > 100 µM
GI50 (OVCAR-5 ovarian): > 100 µM and 41.8 µM
TGI (OVCAR-5 ovarian): > 100 µM
GI50 (HOP-92 NSCLC): > 100 µM and 10.2 µM
TGI (HOP-92 NSCLC): > 100 µM
GI50 (HCT-15 colon): > 100 µM and 12.9 µM
TGI (HCT-15 colon): > 100 µM
GI50 (COLO 205 colon): > 100 µM and 21.8 µM
TGI (COLO 205 colon): > 100 µM and 58.6 µM
GI50 (MOLT-4 leukemia): > 100 µM and 36 µM
TGI (MOLT-4 leukemia): > 100 µM
GI50 (SF-295 CNS): > 100 µM and 22.9 µM
TGI (SF-295 CNS): > 100 µM
GI50 (786-0 renal): > 100 µM and 46.2 µM
TGI (786-0 renal): > 100 µM
GI50 (ACHN renal): > 100 µM and 85.1 µM
TGI (ACHN renal): > 100 µM
GI50 (MCF7 breast): > 100 µM and 25.3 µM
TGI (MCF7 breast): > 100 µM
GI50 (SNB-19 CNS): > 100 µM and 29.3 µM
TGI (SNB-19 CNS): > 100 µM
GI50 (SK-MEL-5 melanoma): > 100 µM and 46.1 µM
TGI (SK-MEL-5 melanoma): > 100 µM
GI50 (HCT-116 colon): > 100 µM and 25 µM
TGI (HCT-116 colon): > 100 µM
TGI (K-562 leukemia): > 100 µM
GI50 (NCI-H460 lung): > 100 µM and 31.7 µM
TGI (NCI-H460 lung): > 100 µM
GI50 (SK-MEL-2 melanoma): > 100 µM and 20.5 µM
TGI (SK-MEL-2 melanoma): > 100 µM
GI50 (HS 578T breast): > 100 µM and 15.9 µM
TGI (HS 578T breast): > 100 µM and 64.1 µM
GI50 (EKVX NSCLC): > 100 µM and 66.5 µM
TGI (EKVX NSCLC): > 100 µM
GI50 (A549 NSCLC): > 100 µM and 35.5 µM
TGI (A549 NSCLC): > 100 µM
GI50 (UACC-257 melanoma): > 100 µM and 71.3 µM
TGI (UACC-257 melanoma): > 100 µM
GI50 (OVCAR-8 ovarian): > 100 µM and 35.3 µM
TGI (OVCAR-8 ovarian): > 100 µM
GI50 (A498 renal): > 100 µM and 14 µM
TGI (A498 renal): > 100 µM and 52.5 µM
GI50 (SN12C renal): > 100 µM and 38 µM
TGI (SN12C renal): > 100 µM
GI50 (UACC-62 melanoma): > 100 µM and 16.6 µM
TGI (UACC-62 melanoma): > 100 µM
GI50 (NCI-H23 lung): > 100 µM and 46.9 µM
TGI (NCI-H23 lung): > 100 µM
GI50 (UO-31 renal): > 100 µM and 45.4 µM
TGI (UO-31 renal): > 100 µM
GI50 (TK-10 renal): > 100 µM
TGI (TK-10 renal): > 100 µM
GI50 (RPMI-8226 leukemia): > 100 µM and 41.4 µM
TGI (RPMI-8226 leukemia): > 100 µM
GI50 (SK-OV-3 ovarian): > 100 µM and 27.1 µM
TGI (SK-OV-3 ovarian): > 100 µM
GI50 (SNB-75 CNS): 39.4 µM and 5.4 µM
TGI (SNB-75 CNS): > 100 µM and 43.4 µM
GI50 (MDA-MB-231 breast): > 100 µM and 23.5 µM
TGI (MDA-MB-231 breast): > 100 µM
GI50 (OVCAR-4 ovarian): > 100 µM and 92.2 µM
TGI (OVCAR-4 ovarian): > 100 µM
GI50 (T-47D breast): > 100 µM and 26.3 µM
TGI (T-47D breast): > 100 µM
GI50 (HL-60(TB) leukemia): > 100 µM and 21 µM
TGI (HL-60(TB) leukemia): > 100 µM and 94.6 µM
GI50 (SK-MEL-28 melanoma): > 100 µM
TGI (SK-MEL-28 melanoma): > 100 µM
GI50 (PC-3 prostate): > 100 µM and 31.9 µM
TGI (PC-3 prostate): > 100 µM
GI50 (HCC-2998 colon): > 100 µM and 33 µM
TGI (HCC-2998 colon): > 100 µM
GI50 (CAKI-1 renal): > 100 µM and 19.5 µM
TGI (CAKI-1 renal): > 100 µM
GI50 (NCI/ADR-RES ovarian): > 100 µM and 27.9 µM
TGI (NCI/ADR-RES ovarian): > 100 µM
GI50 (BT-549 breast): > 100 µM and 15.2 µM
TGI (BT-549 breast): > 100 µM
GI50 (HT29 colon): > 100 µM and 25.2 µM
TGI (HT29 colon): > 100 µM and 93.5 µM
GI50 (NCI-H522 lung): > 100 µM and 20.2 µM
TGI (NCI-H522 lung): > 100 µM and 70.1 µM
GI50 (HOP-62 NSCLC): > 100 µM and 34.3 µM
TGI (HOP-62 NSCLC): > 100 µM
